ChEMBL document CHEMBL1133199, “Synthesis and uptake of nitric oxide-releasing drugs by the P2 nucleoside transporter in Trypanosoma equiperdum” (Bioorg Med Chem Lett, 2000)

T1: Adenosine transporter 1 (Trypanosoma brucei, UniProt Q9Y0I0)
T1 sequence (Q9Y0I0 whole entry): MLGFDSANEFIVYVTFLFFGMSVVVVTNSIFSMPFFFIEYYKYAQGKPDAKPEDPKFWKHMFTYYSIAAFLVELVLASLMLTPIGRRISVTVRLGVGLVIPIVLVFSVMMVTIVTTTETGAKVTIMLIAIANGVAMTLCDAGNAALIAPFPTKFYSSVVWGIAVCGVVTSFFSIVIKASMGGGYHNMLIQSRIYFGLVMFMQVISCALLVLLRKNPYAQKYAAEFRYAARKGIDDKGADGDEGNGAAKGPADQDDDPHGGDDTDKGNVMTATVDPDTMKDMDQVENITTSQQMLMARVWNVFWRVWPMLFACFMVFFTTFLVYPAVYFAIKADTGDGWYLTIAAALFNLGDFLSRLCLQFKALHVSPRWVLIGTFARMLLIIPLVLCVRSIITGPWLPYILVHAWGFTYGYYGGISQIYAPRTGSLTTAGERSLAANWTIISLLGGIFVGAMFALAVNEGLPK

B1: Adenosine transporter 1 (Trypanosoma brucei), Q9Y0I0 (protein)
chain: T1 sequence (Q9Y0I0 whole entry)

These molecules were tested against T1, Adenosine transporter 1 (assay: (§1) Compound was tested for inhibition of Adenosine transporter P2 type by using [2-3H]adenosine as radioligand in Trypanosoma equiperdum).

Going from `CC(=O)NC(C(=O)NC[C@H]1OC(n2cnc3c(N)ncnc32)[C@H](O)[C@@H]1O)C(C)(C)SN=O` (some centres not stated) to `CC(=O)NC(C(=O)NCCn1cnc2c(N)ncnc21)C(C)(C)SN=O` (configuration not stated), the Ki falls from 3.47 µM to 0.62 µM (5.6-fold).

First: Nc1ncnc2c1ncn2[C@@H]1O[C@H](CO[N+](=O)[O-])[C@@H](O)[C@H]1O
Second: Nc1ncnc2c1ncn2CCO[N+](=O)[O-]
The Ki of the first is 6.5-fold higher: 12.3 µM for the first, 1.9 µM for the second. The second binds more tightly here.

Going from `NCCS[As](SCCN)c1ccc(Nc2nc(N)nc(N)n2)cc1` [CYMELARSEN] to `Nc1nc(N)nc(Nc2ccc(CCO[N+](=O)[O-])cc2)n1`, the Ki falls from 22.9 µM to 0.2 µM (110-fold).

Compared with `CC(=O)NC(C(=O)Nc1ccc(Nc2nc(N)nc(N)n2)cc1)C(C)(C)SN=O` (configuration not stated), `CC(=O)NC(C(=O)Nc1ccc(N)nc1)C(C)(C)SN=O` (configuration not stated) is 700-fold higher in Ki: 0.58 µM for the first, 404 µM for the second. The first binds more tightly here.

`O=[N+]([O-])OCc1ccccc1` and `CC(=O)N[C@@H](C(=O)O)C(C)(C)SN=O` cannot be ordered by Ki: greater than 1000 µM for the first, greater than 1000 µM for the second.

In the case of `Nc1nc(N)c2c(no[n+]2[O-])n1`, the Ki is reported as 117 µM.

Each molecule was assayed on Nc1ncnc2c1ncn2[C@@H]1O[C@H](CO)[C@@H](O)[C@H]1O (assay: as §1).

Molecule B1 has a Km of 0.7 µM.
